In general, pEC50 refers to the negative decadic logarithm of the EC50, by convention in mol/L. A low value points to a high EC50. As usually defined, the Solubility is the concentration that dissolves in the medium under given conditions. Low values mean a poorly soluble substance, high ones a readily soluble substance.

Results on 26 molecules are retold here after US10919859B2, “Benzylaminopyridylcyclopropanecarboxylic acids, pharmaceutical compositions and uses thereof” (Boehringer Ingelheim International GmbH, priority 2017, dated 2021).

pEC50: −log10 of the molar value.

The target in data set [1] is human GPR40 receptor (Homo sapiens (Human), UniProt O14842). Put plainly: IP1 accumulation measurements using the IPOne assay system. In kind it is cell-based. The note with it: 1321N1 cells stably expressing human GPR40, 1 h at 37° C. On the procedure: IP1 accumulation measurements using the IPOne assay system—1321N1 cells stably expressing human GPR40 receptor (Euroscreen, Belgium) are seeded 24 h before the assay in white 384-well plates in culture medium containing 10% FCS, 1% Na-Pyruvate and 400 μg/mL G418. IP1 is assayed according to the manufacturer's description (Cisbio Bioassays, France). In brief, the assay is started by substitution of the culture medium by stimulation buffer (Hepes 10 mM, CaCl2 1 mM, MgCl2 0.5 mM, KCl 4.2 mM, NaCl 146 mM, glucose 5.5 mM and LiCl 50 mM, pH 7.4). Cells are stimulated for 1 h at 37° C., 5% CO2 by addition of the compounds that are diluted in stimulation buffer containing LiCl. Assays are stopped by adding HTRF-conjugates (IP1-d2 and Anti-IP1 cryptate Tb) and lysis buffer, provided by the manufacturer. After an incubation time of 1 h at room temperature plates are measured using an EnVision™, Perkin Elmer. The obtained fluorescence ratios at 665/615 […] are then used to calculate the pEC50 values using Assay Explorer 3.3 Software (Accelrys, Inc.) by interpolation using an IP1 reference curve and subsequent sigmoidal curve fitting allowing for a variable hill slope.

A short description of data set [2]: Aqueous solubility (buffer vs acetonitrile/water, LC-UV). In kind it is physicochemical. How it is done:
The aqueous solubility of the compounds of the invention is determined by comparing the amount dissolved in buffer to the amount in an acetonitrile/water (1/1) solution. Starting from a 10 mM DMSO stock solution aliquots are diluted with acetonitrile/water (1/1) or buffer, respectively. After 24 h of shaking, the solutions are filtrated and analyzed by LC-UV. The amount dissolved in buffer is compared to the amount in the acetonitrile solution.

Where [3] appears, read: pH 2.2 buffer, 24 h shaking, 2.5% DMSO, examples in this invention.

Chain of human GPR40 receptor (O14842 whole entry): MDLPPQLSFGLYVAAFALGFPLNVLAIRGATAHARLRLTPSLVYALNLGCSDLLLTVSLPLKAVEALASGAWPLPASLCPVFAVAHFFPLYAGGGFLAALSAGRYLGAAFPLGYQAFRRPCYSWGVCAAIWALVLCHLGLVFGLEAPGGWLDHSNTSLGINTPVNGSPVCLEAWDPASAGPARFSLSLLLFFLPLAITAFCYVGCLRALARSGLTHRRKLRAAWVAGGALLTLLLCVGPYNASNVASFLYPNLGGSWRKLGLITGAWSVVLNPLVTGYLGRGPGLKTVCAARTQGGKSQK

With `O=C(O)[C@H]1C[C@@H]1c1ccc(NCc2cc(-c3ccc(-c4cnco4)cc3)ccc2F)cn1` [Example 32], the pEC50 in data set [1] is 6.76. Moreover, the “Solubility at pH value 2.2” value in data set [2] (setting [3]) stood at 56 μg/mL.
Molecule `O=C(O)[C@H]1C[C@@H]1c1ccc(NCc2cc(-c3c(F)cc(OC4CC4)cc3F)ccc2F)cn1` [Example 33] gave a pEC50 in data set [1] of 6.53. Besides, the “Solubility at pH value 2.2” value in data set [2] (pH 2.2) is listed as 53 μg/mL.
Regarding `Nc1cc(F)c(-c2ccc(F)c(CNc3ccc([C@H]4C[C@@H]4C(=O)O)nc3)c2)c(F)c1` [Example 34], the pEC50 in data set [1] is 5.84. In data set [2] (pH 2.2), the “Solubility at pH value 2.2” value was determined as 79 μg/mL.
Taken in the same sequence, the figures for `COc1cc(C)c(-c2ccc(F)c(CNc3ccc([C@H]4C[C@@H]4C(=O)O)nc3)c2)c(C)c1` [Example 35] were 7.31 and 63 μg/mL.
For the molecule `Cc1ccc(Cl)c(-c2ccc(F)c(CNc3ccc([C@H]4C[C@@H]4C(=O)O)nc3)c2)c1Cl` [Example 36], the pEC50 in data set [1] is 7.46. For the same molecule, in data set [2] (pH 2.2), the “Solubility at pH value 2.2” value turned out to be 43 μg/mL.
Take `O=C(O)[C@H]1C[C@@H]1c1ccc(NCc2cc(-c3ccccc3C(F)(F)F)ccc2F)cn1` [Example 37]: the pEC50 in data set [1] is 7.42. Also, the “Solubility at pH value 2.2” value in data set [2] (pH 2.2) amounted to 68 μg/mL.
Taken in the same sequence, the figures for `N#Cc1cccc(C#N)c1-c1ccc(F)c(CNc2ccc([C@H]3C[C@@H]3C(=O)O)nc2)c1` [Example 38] were below 5.00 and above 83 μg/mL.
For `O=C(O)[C@H]1C[C@@H]1c1ccc(NCc2cc(-c3c(F)cccc3F)ccc2F)cn1` [Example 39], the pEC50 in data set [1] was 6.36. The “Solubility at pH value 2.2” value in data set [2] (pH 2.2) came out at 46 μg/mL.
For the molecule `COc1cc(F)c(-c2ccc(F)c(CNc3ccc([C@H]4C[C@@H]4C(=O)O)nc3)c2)c(F)c1` [Example 40], the pEC50 in data set [1] was 6.01. The “Solubility at pH value 2.2” value in data set [2] (pH 2.2) amounted to 62 μg/mL.
In data set [1], `Cc1cccc(C)c1-c1ccc(F)c(CNc2ccc([C@H]3C[C@@H]3C(=O)O)nc2)c1` [Example 41] gave a pEC50 of 7.39. Moreover, the “Solubility at pH value 2.2” value in data set [2] (pH 2.2) is recorded as 59 μg/mL.
The corresponding values for `Cc1cc(C(=O)N(C)C)cc(C)c1-c1ccc(F)c(CNc2ccc([C@H]3C[C@@H]3C(=O)O)nc2)c1` [Example 42] are 6.64 and 71 μg/mL.
Molecule `CNC(=O)c1cc(C)c(-c2ccc(F)c(CNc3ccc([C@H]4C[C@@H]4C(=O)O)nc3)c2)c(C)c1` [Example 43] showed a pEC50 in data set [1] of 6.45. The “Solubility at pH value 2.2” value in data set [2] (pH 2.2) stood at 84 μg/mL.
In turn, `Cc1cc(OCC2CCOCC2)cc(C)c1-c1ccc(F)c(CNc2ccc([C@H]3C[C@@H]3C(=O)O)nc2)c1` [Example 44] had a pEC50 in data set [1] of 7.74. For the same molecule, the “Solubility at pH value 2.2” value in data set [2] (pH 2.2) was 66 μg/mL.
In data set [1], `Cc1cc(C(=O)O)cc(C)c1-c1ccc(F)c(CNc2ccc([C@H]3C[C@@H]3C(=O)O)nc2)c1` [Example 45] gave a pEC50 of 5.44. Also, the “Solubility at pH value 2.2” value in data set [2] (pH 2.2) stood at 69 μg/mL.
`Cc1cc(OCC2(O)CCS(=O)(=O)CC2)cc(C)c1-c1ccc(F)c(CNc2ccc([C@H]3C[C@@H]3C(=O)O)nc2)c1` [Example 46] gave a pEC50 in data set [1] of 6.77. Besides, the “Solubility at pH value 2.2” value in data set [2] (pH 2.2) came to 102 μg/mL.
As for `COc1cc(-c2cc(C)c(-c3ccc(F)c(CNc4ccc([C@H]5C[C@@H]5C(=O)O)nc4)c3)c(C)c2)ccn1` [Example 47], in data set [1], the pEC50 was 8.30. The “Solubility at pH value 2.2” value in data set [2] (pH 2.2) is 57 μg/mL.
As for `Cc1cc(OCC2(O)CCSCC2)cc(C)c1-c1ccc(F)c(CNc2ccc([C@H]3C[C@@H]3C(=O)O)nc2)c1` [Example 48], the pEC50 in data set [1] is 7.25. In addition, the “Solubility at pH value 2.2” value in data set [2] (pH 2.2) was determined as 67 μg/mL.
`Cc1cc(OCC2(O)CCOCC2)cc(C)c1-c1ccc(F)c(CNc2ccc([C@H]3C[C@@H]3C(=O)O)nc2)c1` [Example 49] had a pEC50 in data set [1] of 6.83. Besides, in data set [2] (pH 2.2), the “Solubility at pH value 2.2” value amounted to 83 μg/mL.
Take `CC(C)c1ccccc1-c1ccc(F)c(CNc2ccc([C@H]3C[C@@H]3C(=O)O)nc2)c1` [Example 50]: the pEC50 in data set [1] is 7.09. The “Solubility at pH value 2.2” value in data set [2] (setting [3]) was 48 μg/mL.
In turn, `Cc1cnc(-c2cc(C)c(-c3ccc(F)c(CNc4ccc([C@H]5C[C@@H]5C(=O)O)nc4)c3)c(C)c2)nc1` [Example 51] had a pEC50 in data set [1] of 8.22. Further, the “Solubility at pH value 2.2” value in data set [2] (setting [3]) is 58 μg/mL.
As for `COc1cc(OC)c(F)c(-c2ccc(F)c(CNc3ccc([C@H]4C[C@@H]4C(=O)O)nc3)c2)c1F` [Example 52], the pEC50 in data set [1] was 6.08. The “Solubility at pH value 2.2” value in data set [2] (pH 2.2) stood at 62 μg/mL.
For `CCc1cccc(CC)c1-c1ccc(F)c(CNc2ccc([C@H]3C[C@@H]3C(=O)O)nc2)c1` [Example 53], in data set [1], the pEC50 was 7.24. For the same molecule, the “Solubility at pH value 2.2” value in data set [2] (setting [3]) is given as 50 μg/mL.
Take `Cc1cc(-c2nnn(CC(C)(C)O)n2)cc(C)c1-c1ccc(F)c(CNc2ccc([C@H]3C[C@@H]3C(=O)O)nc2)c1` [Example 54]: the pEC50 in data set [1] is 8.00. The “Solubility at pH value 2.2” value in data set [2] (pH 2.2) was found to be 81 μg/mL.
In data set [1], `Cc1cc(-c2ccnn2C)cc(C)c1-c1ccc(F)c(CNc2ccc([C@H]3C[C@@H]3C(=O)O)nc2)c1` [Example 55] showed a pEC50 of 7.92. Also, the “Solubility at pH value 2.2” value in data set [2] (pH 2.2) is 53 μg/mL.
As for `Cc1cc(-c2ccn(C)c(=O)n2)cc(C)c1-c1ccc(F)c(CNc2ccc([C@H]3C[C@@H]3C(=O)O)nc2)c1` [Example 56], the negative-log EC50 (pEC50) in data set [1] was 7.49. In addition, in data set [2] (setting [3]), the “Solubility at pH value 2.2” value was found to be 86 μg/mL.
For `Cc1cc(C#N)cc(C)c1-c1ccc(F)c(CNc2ccc([C@H]3C[C@@H]3C(=O)O)nc2)c1` [Example 57], in data set [1], the pEC50 was 7.04. Further, in data set [2] (pH 2.2), the “Solubility at pH value 2.2” value came to 59 μg/mL.
